We go through six compounds from ChEMBL document CHEMBL5724914, “Linking interpersonal differences in gut microbiota composition and drug biotransformation activity” (2024).

For data set [1] the following is noted: human gut metagenome, 24 h, 2 µM.
Data set [2] is described as follows: The drug is tested on Z-028 corresponding to mouse gut metagenome with ENA study accession number: PRJEB37062 and ENA sample accession number: ERS12561827 for biotransformation under anaerobic condition. The drug concentrations were measured over 9 timepoints collected between 0 and 24 hours of incubation by liquid-chromatography-coupled mass spectrometry (LC–MS). To be noted: 2 µM.

Data set [3] can be described thus: The drug is tested on WLS-170 corresponding to human gut metagenome with ENA study accession number: PRJEB37062 and ENA sample accession number: ERS12561762 for biotransformation under anaerobic condition. The drug concentrations were measured over 9 timepoints collected between 0 and 24 hours of incubation by liquid-chromatography-coupled mass spectrometry (LC–MS). The conditions noted are these: 2 µM.

The conditions of data set [4]: human gut metagenome, 24 h, 2 µM. The source holds these as a separate data set.
Data set [5] is described as follows: The drug is tested on Z-020 corresponding to rabbit gut metagenome with ENA study accession number: PRJEB37062 and ENA sample accession number: ERS12561819 for biotransformation under anaerobic condition. The drug concentrations were measured over 9 timepoints collected between 0 and 24 hours of incubation by liquid-chromatography-coupled mass spectrometry (LC–MS). The conditions noted are these: 2 µM.

For data set [6] the following is noted: human gut metagenome, 24 h, 2 µM. This is another data set of the same source.
Data set [7] can be described thus: The drug is tested on Z-026 corresponding to metagenome with ENA study accession number: PRJEB37062 and ENA sample accession number: ERS12561825 for biotransformation under anaerobic condition. The drug concentrations were measured over 9 timepoints collected between 0 and 24 hours of incubation by liquid-chromatography-coupled mass spectrometry (LC–MS). To be noted: 2 µM.

The conditions of data set [8]: human gut metagenome, 24 h, 2 µM. This is another data set of the same source.
The nature of data set [9]: The drug is tested on Z-013 corresponding to rabbit gut metagenome with ENA study accession number: PRJEB37062 and ENA sample accession number: ERS12561813 for biotransformation under anaerobic condition. The drug concentrations were measured over 9 timepoints collected between 0 and 24 hours of incubation by liquid-chromatography-coupled mass spectrometry (LC–MS). To be noted: 2 µM.

Data set [10] in a line: The drug is tested on Z-002 corresponding to rabbit gut metagenome with ENA study accession number: PRJEB37062 and ENA sample accession number: ERS12561802 for biotransformation under anaerobic condition. The drug concentrations were measured over 9 timepoints collected between 0 and 24 hours of incubation by liquid-chromatography-coupled mass spectrometry (LC–MS). The conditions noted are these: 2 µM.

Data set [11] is described as follows: The drug is tested on Z-029 corresponding to rat gut metagenome with ENA study accession number: PRJEB37062 and ENA sample accession number: ERS12561828 for biotransformation under anaerobic condition. The drug concentrations were measured over 9 timepoints collected between 0 and 24 hours of incubation by liquid-chromatography-coupled mass spectrometry (LC–MS). To be noted: 2 µM.

The conditions of data set [12]: human gut metagenome, 24 h, 2 µM. The source holds these as a separate data set.
The conditions of data set [13]: human gut metagenome, 24 h, 2 µM. This is another data set of the same source.
The nature of data set [14]: The drug is tested on WLS-370 corresponding to human gut metagenome with ENA study accession number: PRJEB37062 and ENA sample accession number: ERS12561793 for biotransformation under anaerobic condition. The drug concentrations were measured over 9 timepoints collected between 0 and 24 hours of incubation by liquid-chromatography-coupled mass spectrometry (LC–MS). The conditions noted are these: 2 µM.

Data set [15] can be described thus: The drug is tested on WLS-082 corresponding to human gut metagenome with ENA study accession number: PRJEB37062 and ENA sample accession number: ERS12561751 for biotransformation under anaerobic condition. The drug concentrations were measured over 9 timepoints collected between 0 and 24 hours of incubation by liquid-chromatography-coupled mass spectrometry (LC–MS). To be noted: 2 µM.

For data set [16] the following is noted: human gut metagenome, 24 h, 2 µM. The source holds these as a separate data set.
Data set [17] can be described thus: The drug is tested on WLS-010 corresponding to human gut metagenome with ENA study accession number: PRJEB37062 and ENA sample accession number: ERS12561743 for biotransformation under anaerobic condition. The drug concentrations were measured over 9 timepoints collected between 0 and 24 hours of incubation by liquid-chromatography-coupled mass spectrometry (LC–MS). The conditions noted are these: 2 µM.

For data set [18] the following is noted: human gut metagenome, 24 h, 2 µM. The source holds these as a separate data set.
A short description of data set [19]: The drug is tested on Z-021 corresponding to metagenome with ENA study accession number: PRJEB37062 and ENA sample accession number: ERS12561820 for biotransformation under anaerobic condition. The drug concentrations were measured over 9 timepoints collected between 0 and 24 hours of incubation by liquid-chromatography-coupled mass spectrometry (LC–MS). The conditions noted are these: 2 µM.

The nature of data set [20]: The drug is tested on WLS-027 corresponding to human gut metagenome with ENA study accession number: PRJEB37062 and ENA sample accession number: ERS12561744 for biotransformation under anaerobic condition. The drug concentrations were measured over 9 timepoints collected between 0 and 24 hours of incubation by liquid-chromatography-coupled mass spectrometry (LC–MS). To be noted: 2 µM.
Note: call rule not given here.

`N=C(N)NC(=O)Cc1c(Cl)cccc1Cl` [GUANFACINE]: the “Bacterial Biotransformation” value in data set [1], in data set [2], in data set [3], in data set [4], in data set [5] and in data set [6] was “Compound NOT metabolized” each time. Moreover, the “Bacterial Biotransformation” value in [7], in data set [8], in [9], in data set [10], in data set [11] and in data set [12] was “Compound NOT metabolized” in each case. For the same compound, the “Bacterial Biotransformation” value in data set [13], in data set [14], in data set [15], in data set [16], in [17] and in data set [18] was “Compound NOT metabolized” in each case. Besides, the “Bacterial Biotransformation” value in data set [19] and in [20] was “Compound NOT metabolized” each time.
As for `CN(CCOc1ccc(CC2SC(=O)NC2=O)cc1)c1ccccn1.O=C(O)/C=C\C(=O)O` (configuration not stated) [ROSIGLITAZONE MALEATE], the “Bacterial Biotransformation” value in data set [1] is given as “Compound NOT metabolized”; in [2], “Compound NOT metabolized”; in [3], “Compound metabolized”; in data set [4], “Compound metabolized”; in data set [5], “Compound NOT metabolized”; in data set [6], “Compound metabolized”. The “Bacterial Biotransformation” value in data set [7], in data set [8], in data set [9], in data set [10], in data set [11] and in [12] was “Compound NOT metabolized” each time. Further, the “Bacterial Biotransformation” value in [13] is given as “Compound metabolized”; in data set [14], “Compound metabolized”; in data set [15], “Compound NOT metabolized”; in data set [16] it was “Compound metabolized”; in data set [17], “Compound NOT metabolized”; in [18], “Compound NOT metabolized”. The entries for the “Bacterial Biotransformation” value in data set [19] and in [20] were “Compound NOT metabolized” and “Compound metabolized”, respectively.
In the case of `C#C[C@]1(OC(C)=O)CC[C@H]2[C@@H]3CCC4=C[C@@H](OC(C)=O)CC[C@@H]4[C@H]3CC[C@@]21C` [ETHYNODIOL DIACETATE], the “Bacterial Biotransformation” value in [1], in data set [2], in [3], in data set [4], in data set [5] and in [6] was “Compound metabolized” each time. The “Bacterial Biotransformation” value is listed as “Compound metabolized” in [7]; “Compound metabolized” in data set [8]; “Compound metabolized” in data set [9]; “Compound metabolized” in [10]; “Compound NOT metabolized” in data set [11]; “Compound metabolized” in data set [12]. Besides, the “Bacterial Biotransformation” value in [13], in data set [14], in data set [15], in data set [16], in [17] and in data set [18] was “Compound metabolized” each time. Moreover, the “Bacterial Biotransformation” value in data set [19] is “Compound metabolized”.
In the case of `CC1=C(CC(=O)O)c2cc(F)ccc2/C1=C\c1ccc([S+](C)[O-])cc1` (configuration not stated), the “Bacterial Biotransformation” value in data set [1] was “Compound metabolized”; in data set [2], “Compound NOT metabolized”; in data set [4] it was “Compound metabolized”; in data set [5], “Compound NOT metabolized”; in data set [6], “Compound metabolized”; in data set [7] it was “Compound metabolized”. The “Bacterial Biotransformation” value is “Compound metabolized” in [8]; “Compound NOT metabolized” in data set [9]; “Compound NOT metabolized” in data set [10]; “Compound metabolized” in [11]; “Compound metabolized” in data set [12]; “Compound metabolized” in data set [13]. In addition, the “Bacterial Biotransformation” value in data set [14] is recorded as “Compound metabolized”; in data set [15], “Compound metabolized”; in data set [17] it was “Compound metabolized”; in data set [18] it was “Compound metabolized”; in data set [19], “Compound NOT metabolized”; in data set [20] it was “Compound metabolized”.
Consider `CC(=O)SCC(Cc1ccccc1)C(=O)NCC(=O)OCc1ccccc1` (configuration not stated) [RACECADOTRIL], for which the “Bacterial Biotransformation” value in [2], in data set [5], in [7], in data set [9], in data set [10] and in [11] was “Compound metabolized” throughout. In data set [19], the “Bacterial Biotransformation” value was “Compound metabolized”.
As to `CN(C/C=C/C#CC(C)(C)C)Cc1cccc2ccccc12` [TERBINAFINE], the “Bacterial Biotransformation” value in data set [1] is on record as “Compound NOT metabolized”; in [2], “Compound NOT metabolized”; in [3] it was “Compound metabolized”; in [4], “Compound NOT metabolized”; in [5], “Compound NOT metabolized”; in data set [6], “Compound NOT metabolized”. Besides, the “Bacterial Biotransformation” value in [7], in data set [8], in data set [9], in data set [10], in data set [11] and in [12] was “Compound NOT metabolized” throughout. The “Bacterial Biotransformation” value in data set [13] was “Compound NOT metabolized”; in data set [14], “Compound NOT metabolized”; in [15], “Compound NOT metabolized”; in [16], “Compound metabolized”; in data set [19], “Compound NOT metabolized”; in [20], “Compound NOT metabolized”.
